Earlier results on one molecule are cited in patent US11304923B2, “Use of a benzoate containing composition to treat glycine encephalopathy” (Rush University Medical Center, priority 2017, dated 2022).

Series [1] deals with disease process of multiple sclerosis (MS). To be noted: mice.
In the next series the test system is DJ-1. As to conditions: astrocytes and neurons.
Series [2] concerns brain-derived neurotrophic factor (BDNF). To be noted: brain cells.
The test system of the next series is neurotrophin-3 (NT-3). To be noted: brain cells.

Regarding `O=C([O-])c1ccccc1.[Na+]` [sodium benzoate], the “disease process of multiple sclerosis (MS)” value in series [1] is on record as “suppresses”. The DJ-1 protein level result in the series with DJ-1 was “up-regulates”. For the same molecule, the “production of BDNF” value in series [2] is given as “increases”. In addition, in the series on neurotrophin-3 (NT-3), the “production of NT-3” value is given as “increases”.
